“Also recorded” adds a separate entry of the source. Where no end group is shown, it is not given here.
Tests used:
[1] = test system: vessels in human xenograft PC-3 (prostate carcinoma) tumors; assay: in vivo binding of intravenously injected peptide in PC-3 tumor-bearing mice (fluorescence microscopy of frozen sections); parameters: species or system mouse; details: for binding to vessels in the tumors (tumor cross-sections): five i.v. (tail vein) injections of 1 ng/mouse at one hour intervals
Procedure: (§1) Additionally, in vivo experiments with the prototype peptide, SEQ ID NO 3, which stained the brightest in the in vitro experiments described above, were conducted using several different assays as described below. In one in vivo assay, tumor-bearing mice were injected five times intravenously (tail vein) with 1 ng/mouse at one hour intervals. The mice were sacrificed 15 minutes after the final injection, the tumors and other normal tissues (lung, heart, muscle) were taken for fresh frozen sectioning (i.e., embedded in OCT medium and frozen) and for evaluation via fluorescence microscopy. […] Although these peptides were generated from TDEC originating from the murine SCC tumor, SEQ ID NO 3 also bound to the endothelium from a human xenograft model.
The specificity of SEQ ID NO 3 for endothelial vessels is illustrated in FIG. 7. In this experiment, PC-3 tumor-bearing mice were injected (as described above) with positive control poly-L-lysine, negative control SEQ ID NO 8 Pen G7 and peptide SEQ ID NO 3. FIG. 7A, 7B and 7C are micrographs illustrating cross-sections of PC-3 tumor from tumor-bearing mice that were injected with peptides. In each figure, the gray diamond indicates the location of the lumen of the blood vessel.

[2] = test system: tumor-derived endothelial cells (TDEC); assay: in vitro binding of FITC-conjugated peptides to TDEC monolayers (fluorescent microscopy), NIH3T3 as negative control monolayer; format: cell-based, mouse; details: peptide 5 μg/ml overnight at 37° C. in PBS with 10% FCS; TDEC vs NIH3T3 monolayers
Procedure: Tumors were established by subcutaneous injection of 5×10^6 SCC VII cells per C3H/HeJ mouse. After a tumor had achieved a diameter of 0.5 cm to 1.0 cm and before any evidence of central necrosis, it was removed sterilely, minced, and digested with collagenases and RNAses to yield a single cell suspension. The cells were then stained using antibody for PECAM-1. The stained cells were sorted using automated flow cytometry and the positive cells were cultured as TDECs in Po Media [DMEM supplemented with 20% Sarcoma-180 conditioned media, 10% Fetal Calf Serum, 1% BME vitamin, 1% heparin, and 0.005% endothelial cell growth supplement (Collaborative Research)].
Evidence for specific binding of oligopeptides to TDEC was accomplished as follows. The most frequently repetitive sequences obtained from the 100 clones were used for synthesis of oligopeptides (Sigma Genesis). By conjugating fluorescein isothiocynate ([…]) to the carboxyl termini of peptides, these molecules were tested for in vitro binding with TDECs and NIH3T3 cells (negative control cell line). These peptides contained flanking cysteines so that a disulfide loop may be reformed, thus constraining and mimicking the binding condition of the initial selection process. […]

[3] = test system: vessels in murine SCC (squamous cell) tumors; assay: in vivo binding of intravenously injected peptide in tumor-bearing mice, murine SCC tumor model (fluorescence microscopy of frozen sections); parameters: species or system mouse
Procedure: as §1

[4] = test system: human soft tissue sarcoma and prostate carcinoma tumor sections (endothelium); assay: triple staining of fresh frozen human tumor sections with FITC-tagged peptide, anti-Factor VIII antibody and nuclear stain; format: binding; details: fresh frozen sections snap fixed in paraformaldehyde
Procedure: The ability of novel peptide motifs of the present invention to cross-react with tissues from different sources was tested using human samples from a pathologist-diagnosed soft tissue sarcoma and a prostate carcinoma. Fresh frozen tumor sections were snap fixed in paraformaldehyde, and then triple stained for fluorescence microscopic analysis, the results of which are shown in FIG. 8. The staining included: a stain for cell nuclei, and anti-Factor VIII antibody (secondary antibody labeled with Cy3 red fluorescent probe), and peptide SEQ ID NO 3 (tagged with FITC, green upon fluorescence). […] Factor VIII staining is specific for endothelial cells which produce and store the Factor VIII blood factor.

| Substance | binding to vessels in the tumors (tumor cross-sections) [1] | staining / binding specificity of FITC-labeled peptide for TDEC [2] | binding to vessels of normal tissues ([3]; murine SCC tumor-bearing mice, lung, heart, muscle, five i.v. injections of 1 ng/mouse) | binding to vessels in the tumors ([3]; murine SCC tumor, five i.v. (tail vein) injections of 1 ng/mouse at one hour intervals, sacrifice 15 minutes after final injection) | staining of human tumor sections relative to Factor VIII-positive (vascularized) regions [4] | distribution of staining in PC-3 tumor cross-section ([1]; after i.v. injection, FIG. 7C) | binding to vessels of normal tissues ([1]; lung, heart, muscle, five i.v. injections of 1 ng/mouse) |
| --- | --- | --- | --- | --- | --- | --- | --- |
| CGGGGGGGC (cysteine pairing not given here) [SEQ ID NO 8 Pep G7, negative control peptide, seven glycine residues flanked by cysteines, reference compound] | no binding activity | – | – | – | – | – | – |
| CGGRKLGGC (cysteine pairing not given here) [SEQ ID NO 2] | – | preferential staining for TDEC; also recorded: some binding specificity to TDEC | – | – | – | – | – |
| CGGRRLGGC (cysteine pairing not given here) [SEQ ID NO 3] | preferential binding; also recorded: intense binding to the cells of the vessel | brightest staining and specificity for TDEC; also recorded: highest in vitro binding specificity to TDEC | no binding to the vessels of normal tissues | preferential binding | observed primarily in the regions of the tissue that were vascularized | limited to the blood vessel wall | no binding to the vessels of normal tissues |
| poly-L-lysine [reference compound] | not only bound to the cells of the blood vessel, but also diffused through the intercellular space | – | – | – | – | – | – |
